Experimental data: ChEMBL document CHEMBL5725825, “Inhibitors of IRAK4 activity” (2017)

Target: T1, Interleukin-1 receptor-associated kinase 4 (Homo sapiens, UniProt Q9NWZ3)
T1 sequence (Q9NWZ3 whole entry): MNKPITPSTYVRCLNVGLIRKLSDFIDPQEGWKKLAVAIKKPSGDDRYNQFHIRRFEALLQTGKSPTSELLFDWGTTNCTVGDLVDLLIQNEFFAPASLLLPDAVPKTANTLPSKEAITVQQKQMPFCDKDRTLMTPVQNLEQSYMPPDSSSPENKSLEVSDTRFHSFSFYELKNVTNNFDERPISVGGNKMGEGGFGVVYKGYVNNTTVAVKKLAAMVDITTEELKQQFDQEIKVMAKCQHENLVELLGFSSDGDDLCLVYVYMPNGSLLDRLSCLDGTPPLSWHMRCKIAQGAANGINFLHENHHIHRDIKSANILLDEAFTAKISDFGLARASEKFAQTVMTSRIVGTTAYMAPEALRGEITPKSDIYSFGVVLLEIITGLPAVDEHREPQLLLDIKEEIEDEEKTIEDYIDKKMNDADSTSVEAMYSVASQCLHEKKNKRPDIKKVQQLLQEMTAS
Assay: IMAP Technology: The kinase activity of IRAK4 is determined by its ability to catalyze the phosphorylation of a fluorescent polypeptide substrate. […] The reaction is initiated by the addition of ATP. After incubation for 30 minutes at 25° C., 60 μl of Progressive IMAP Reagent (Molecular Devices) is added to stop the reaction. Change in RP7030's FP is determined by a FP reader (Analyst HT, LJL BioSystems).

IC50 [µM]	SMILES
0.184	Cn1cc(NC(=O)c2cccc(-c3ccnc(NCC4CC4)c3)c2)c(C(N)=O)n1
1.83	Cn1cc(NC(=O)c2cccc(-c3ccnc(NCC4CC4)c3)n2)c(C(=O)N2CCOCC2)n1
